Measured values published in patent publication US11466007B2, “Substituted lactams showing serotonin 5-HT receptor activity” (Sumitomo Pharma Co., Ltd., priority 2018, dated 2022).

Assays:
[1] = Test 11: hepatotoxic risk (dansyl glutathione (dGSH) trapping assay); assay type: in vitro ADME; settings: human hepatic microsome, 37° C. for 60 minutes, N.D. means below detection limit
Procedure: Test 11: Evaluation of Hepatotoxic Risk (Dansyl Glutathione (dGSH) Trapping Assay)
The present compound was metabolized in hepatic microsome, and reactive metabolite which reacts with dansyl glutathione (dGSH) was detected and quantified from the resulting metabolite. Measurement was carried out with a screening robot (Tecan) for metabolic reaction, and with a fluorescence detection UPLC system (Waters) for metabolite-dGSH binding concentration.
The present compound was dissolved in DMSO to prepare 10 mmol/L test compound solution. 7.6 mL of potassium phosphate buffer (500 mmol/L, pH 7.4), 1.9 mL of human hepatic microsome (Xenotech, 20 mg protein/mL), and 1.27 mL of pure water were mixed to prepare a microsome solution. To 3.78 mL of the microsome solution was added 0.67 mL of pure water to prepare a microsome (dGSH(−)) solution. To 6.48 mL of the microsome solution was added 1.14 mL of the dGSH solution (20 mmol/L) to prepare a microsome (dGSH(+)) solution. […]
Metabolite-dGSH binding concentration was measured by the following method, using a fluorescence detection UPLC system (Waters). […]
Fluorescence intensity was corrected with the composition of organic solvent at the time of elution because fluorescence intensity changes depending on the composition of organic solvent.

[2] = Test 4: metabolic stability test in human hepatic microsome; assay type: in vitro ADME; settings: 0.1 mg/mL microsome, 0.1 μmol/L compound, NADPH, 37° C., 30 minutes
Procedure, shortened: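 Test compound at 0.1 μmol/L incubated 30 min at 37° C with human liver microsomes (0.1 mg/mL) and NADPH (3.2 mmol/L) in 25 mmol/L phosphate buffer, pH 7.4. Residual compound quantified by LC-MS; clearance (mL/min/mg protein) = −LN(residual ratio)/30/0.1.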

Metabolic stability in human hepatic microsome [2]: 0.039 mL/min/mg protein
Compound: O=C1c2ncccc2CCN1CCN1CCC(c2noc3ccccc23)CC1 [Example 22, 7-{2-[4-(1,2-Benzoisoxazol-3-yl)piperidin-1-yl]ethyl}-6,7-dihydro-1,7-naphthyridin-8(5H)-one]
Metabolite-dGSH binding concentration [1]: 0.089 µM
